Laboratory results taken from patent US4281136A, “2-Alkyl-3-haloisothiazolium salts and their derivatives” (Givaudan Corporation, priority 1978, dated 1981).
Values after ≈ are worked out from the molar mass of the structure shown. Like-named read-outs stand apart in the source and are kept apart here.

Key:
E. aerogenes = experiment: slimicide for pulp and paper mill water systems, E. aerogenes; format: cell-based; details: for MIC: Klebsiella aerogenes
Experimental: (§1) Various quantities of a 6% solution of this compound in dimethylformamide were incorporated into 24 ml of a test substrate composed as follows:
(§2) 8.4 g Whatman No. 2 cellulose
(§3) 1.0 g Nutrient Broth, Difco
(§4) 10.0 ml Mersize Rm 70R (Monsanto)
(§5) The samples were inoculated with four different organisms and incubated at 28° C. At weekly intervals the samples were examined for the presence of microbial growth and reinoculated during a total incubation period of four weeks.
(§6) The test of Example V was used to determine the effectiveness of 4,5-dichloro-3-dicyanomethylene-2-methyl-4-isothiazoline as a slimicide.

A. niger = experiment: slimicide for pulp and paper mill water systems, A. niger; format: cell-based; details: for MIC: Aspergillus niger, read-out: Minimum inhibitory concentration
Experimental: as §1, §2, §3, §4, §5, §6

four different organisms = experiment: slimicide for pulp and paper mill water systems, overall; format: cell-based, P. aeruginosa, E. aerogenes, A. niger, P. Piscarium; details: four weeks, 28° C.
Experimental: as §1, §2, §3, §4, §5

P. piscarium = experiment: slimicide for pulp and paper mill water systems, P. piscarium; format: cell-based
Experimental: as §1, §2, §3, §4, §5, §6

Aureobasidium pullulans = experiment: preservative for latex paints; format: cell-based; details: for Zone (zone of inhibition) / Surface (growth on the surface of painted square): three weeks, 27°-28°; for Zone (zone of inhibition): listed as CH3, Cl, Cl; for Surface (growth on the surface of painted square): none, medium or heavy; for zone of inhibition at 0.5 %: read-out: Zone (zone of inhibition), Conc. 0.5% in vinyl acetate paint, three weeks, 27°-28°
Experimental: Various quantities of the chemical were incorporated into a white exterior vinyl acetate paint. Whatman #30 filter paper was painted with one coat of paint on each side. One inch squares were cut and placed in Petri dishes on a malt agar.
The surface of both the agar and the painted squares were inoculated with a spore suspension of Aureobasidium pullulans. The plates were examined for zones of inhibition and surface growth after three weeks incubation in a humidity chamber at 27°-28°.
Various quantities of 4,5-dichloro-2-methyl-4-isothiazolin-3-thione were incorporated into a white exterior vinyl acetate paint and tested as described in Example IV.

P. aeruginosa = experiment: slimicide for pulp and paper mill water systems, P. aeruginosa; format: cell-based; details: for MIC: Pseudomonas aeruginosa, read-out: Minimum inhibitory concentration
Experimental: as §1, §2, §3, §4, §5, §6

Ps. aeruginosa = experiment: preservative for cutting oil emulsions; format: cell-based; details: for Minimum Inhibitory Concentration: listed as CH3, Cl, Cl; for MIC: Pseudomonas aeruginosa
Experimental: Various aliquots of a 6% solution of the chemical in ethanol were added to cutting oil emulsions prepared by diluting Kutwell 30 cutting oil concentrate 1 to 30 with water. These samples were inoculated with a culture of Ps. aeruginosa and incubated at 28° on a rotary shaker. At weekly intervals the samples were examined for microorganisms and then reinoculated and incubated.

[1] = read-out: Minimum inhibitory concentration, E. aerogenes, week 1, 28° C.
[2] = read-out: Minimum inhibitory concentration, E. aerogenes, week 2, 28° C.
[3] = read-out: Minimum inhibitory concentration, E. aerogenes, week 3, 28° C.
[4] = read-out: Minimum inhibitory concentration, E. aerogenes, week 4, 28° C.
[5] = read-out: Minimum inhibitory concentration, P. Piscarium, week 1, 28° C.
[6] = read-out: Minimum inhibitory concentration, P. Piscarium, week 2, 28° C.
[7] = read-out: Minimum inhibitory concentration, P. Piscarium, week 3, 28° C.
[8] = read-out: Minimum inhibitory concentration, P. Piscarium, week 4, 28° C.
[9] = Conc. 0.25% in vinyl acetate paint
[10] = Conc. 0.5% in vinyl acetate paint

Row | Compound | MIC (E. aerogenes; [1]) [µg/mL] | MIC (E. aerogenes; [2]) [µg/mL] | MIC (E. aerogenes; [3]) [µg/mL] | MIC (E. aerogenes; [4]) [µg/mL] | Minimum Inhibitory Concentration (A. niger; A. niger, week 2, 28° C.) [µg/mL] | Minimum Inhibitory Concentration (A. niger; A. niger, week 3, 28° C.) [µg/mL] | Minimum Inhibitory Concentration (A. niger; A. niger, week 4, 28° C.) [µg/mL] | MIC (A. niger) [µg/mL] | MIC (P. piscarium; [5]) [µg/mL] | MIC (P. piscarium; [6]) [µg/mL] | MIC (P. piscarium; [7]) [µg/mL] | MIC (P. piscarium; [8]) [µg/mL] | Surface (growth on the surface of painted square) (Aureobasidium pullulans; [9]) | Surface (growth on the surface of painted square) (Aureobasidium pullulans; [10]) | Minimum Inhibitory Concentration (P. aeruginosa; P. aeruginosa, week 2, 28° C.) [µg/mL] | Minimum Inhibitory Concentration (P. aeruginosa; P. aeruginosa, week 3, 28° C.) [µg/mL] | Minimum Inhibitory Concentration (P. aeruginosa; P. aeruginosa, week 4, 28° C.) [µg/mL] | MIC (P. aeruginosa) [µg/mL] | zone of inhibition at 0.5 % (Aureobasidium pullulans; Aureobasidium pullulans, 504 h) [mm] | other results
1 | C[n+]1sc(Cl)c(Cl)c1Cl [No. 2 (Table I), 2-Methyl-3,4,5-trichloroisothiazolium methylsulfate] | 3.9 | 3.9 | 3.9 | 3.9 | 3.9 | 3.9 | 3.9 | 3.9 | 3.9 | 3.9 | 3.9 | 3.9 | None | None | 7.8 | 7.8 | 7.8 | 7.8 | – | concentration effective as a slimicide (four different organisms): < 0.01%; Zone (zone of inhibition) (Aureobasidium pullulans; Conc. 0.25% in vinyl acetate paint, O3SOMe): 0 mm; Zone (zone of inhibition) (Aureobasidium pullulans; Conc. 0.5% in vinyl acetate paint, O3SOMe): > 20 mm; Minimum Inhibitory Concentration (Ps. aeruginosa; cutting oil emulsion, incubation 1 week, 28°, O3SOMe): < 2 µg/mL; Minimum Inhibitory Concentration (Ps. aeruginosa; cutting oil emulsion, incubation 2 weeks, 28°, O3SOMe): < 2 µg/mL; Minimum Inhibitory Concentration (Ps. aeruginosa; cutting oil emulsion, incubation 3 weeks, 28°, O3SOMe): < 16 µg/mL; Minimum Inhibitory Concentration (Ps. aeruginosa; cutting oil emulsion, incubation 4 weeks, 28°, O3SOMe): < 16 µg/mL
2 | CN1SC(Cl)=C(Cl)C1=C(C#N)C#N [drawing 12 CH3, Cl, Cl, 4,5-dichloro-3-dicyanomethylene-2-methyl-4-isothiazoline] | – | – | – | – | – | – | – | – | – | – | – | – | – | – | 250 | 250 | 250 | – | – | Minimum Inhibitory Concentration (E. aerogenes; E. aerogenes, week 2, 28° C.): 250 µg/mL; Minimum Inhibitory Concentration (E. aerogenes; E. aerogenes, week 3, 28° C.): 250 µg/mL; Minimum Inhibitory Concentration (E. aerogenes; E. aerogenes, week 4, 28° C.): 250 µg/mL; MIC (E. aerogenes; E. aerogenes, week 1, 28° C., read-out: Minimum inhibitory concentration): 250 µg/mL (≈ 1080 µM); MIC (A. niger; A. niger, week 1, 28° C.): 250 µg/mL (≈ 1080 µM); MIC (A. niger; A. niger, week 2, 28° C.): 500 µg/mL (≈ 2150 µM); MIC (A. niger; A. niger, week 3, 28° C.): 500 µg/mL (≈ 2150 µM); MIC (A. niger; A. niger, week 4, 28° C.): 500 µg/mL (≈ 2150 µM); MIC (P. piscarium; P. Piscarium, week 1, 28° C., read-out: Minimum inhibitory concentration): 250 µg/mL (≈ 1080 µM); MIC (P. piscarium; P. Piscarium, week 2, 28° C., read-out: Minimum inhibitory concentration): 250 µg/mL (≈ 1080 µM); MIC (P. piscarium; P. Piscarium, week 3, 28° C., read-out: Minimum inhibitory concentration): 250 µg/mL (≈ 1080 µM); MIC (P. piscarium; P. Piscarium, week 4, 28° C., read-out: Minimum inhibitory concentration): 500 µg/mL (≈ 2150 µM); MIC (P. aeruginosa; P. aeruginosa, week 1, 28° C.): 250 µg/mL (≈ 1080 µM); MIC (Ps. aeruginosa; 168 h, cutting oil emulsion, incubation 1 week, 28°, read-out: Minimum Inhibitory Concentration): 125 µg/mL (≈ 539 µM); MIC (Ps. aeruginosa; 336 h, cutting oil emulsion, incubation 2 weeks, 28°, read-out: Minimum Inhibitory Concentration): 125 µg/mL (≈ 539 µM); MIC (Ps. aeruginosa; 504 h, cutting oil emulsion, incubation 3 weeks, 28°, read-out: Minimum Inhibitory Concentration): 250 µg/mL (≈ 1080 µM); MIC (Ps. aeruginosa; 672 h, cutting oil emulsion, incubation 4 weeks, 28°, read-out: Minimum Inhibitory Concentration): 250 µg/mL (≈ 1080 µM)
3 | Cn1sc(Cl)c(Cl)c1=S [No. 1 (Table VIII), 4,5-Dichloro-2-methyl-4-isothiazolin-3-thione] | < 8 | < 8 | 16 (≈ 80 µM) | 16 (≈ 80 µM) | < 8 | < 8 | < 8 | < 8 | < 8 | < 8 | < 8 | 16 (≈ 80 µM) | no growth | no growth | 16 | 16 | 16 | 16 (≈ 80 µM) | 20 | zone of inhibition at 0.25 % (Aureobasidium pullulans; Aureobasidium pullulans, 504 h, read-out: Zone (zone of inhibition), Conc. 0.25% in vinyl acetate paint, three weeks, 27°-28°): 20 mm; MIC (Ps. aeruginosa; 168 h, read-out: Minimum Inhibitory Concentration, cutting oil emulsion, incubation 1 week, 28°): < 16 µg/mL; MIC (Ps. aeruginosa; 336 h, read-out: Minimum Inhibitory Concentration, cutting oil emulsion, incubation 2 weeks, 28°): 62 µg/mL (≈ 310 µM); MIC (Ps. aeruginosa; 504 h, read-out: Minimum Inhibitory Concentration, cutting oil emulsion, incubation 3 weeks, 28°): 62 µg/mL (≈ 310 µM); MIC (Ps. aeruginosa; 672 h, read-out: Minimum Inhibitory Concentration, cutting oil emulsion, incubation 4 weeks, 28°): 62 µg/mL (≈ 310 µM)
4 | C[n+]1sc(Cl)c(Cl)c1Cl [No. 1 (Table I), 2-Methyl-3,4,5-trichloroisothiazolium fluorosulfonate] | – | – | – | – | – | – | – | – | – | – | – | – | – | – | – | – | – | – | > 20 | Zone (zone of inhibition) (Aureobasidium pullulans; Conc. 0.25% in vinyl acetate paint, O3SF): 0 mm; Minimum Inhibitory Concentration (Ps. aeruginosa; cutting oil emulsion, incubation 1 week, 28°, O3SF): < 16 µg/mL; Minimum Inhibitory Concentration (Ps. aeruginosa; cutting oil emulsion, incubation 2 weeks, 28°, O3SF): < 16 µg/mL; Minimum Inhibitory Concentration (Ps. aeruginosa; cutting oil emulsion, incubation 3 weeks, 28°, O3SF): < 16 µg/mL; Minimum Inhibitory Concentration (Ps. aeruginosa; cutting oil emulsion, incubation 4 weeks, 28°, O3SF): < 16 µg/mL
